The values below are quoted from earlier work in patent US5585490A, “Certain cycloalkyl and azacycloalkyl pyrrolopyrimidines; a new class of GABA brain receptor ligands” (priority 1993, dated 1996).

This data set concerns benzodiazepine binding site. As to conditions: Tallman et al., 1978, Nature, 274: 383-85.

In the case of `CN1CCc2cc3c(cc2C1C1OC(=O)c2c1ccc1c2OCO1)OCO3` (single isomer, unassigned; (-)) [(-) bicuculline], the “Enhancement of benzodiazepine binding by GABA agonists is blocked” value is “much less active”. Consider `CN1CCc2cc3c(cc2C1C1OC(=O)c2c1ccc1c2OCO1)OCO3` (single isomer, unassigned; (+)) [(+) bicuculline], for which the “Enhancement of benzodiazepine binding by GABA agonists is blocked” value is recorded as “blocked”.
